Results from ChEMBL document CHEMBL5442379, “ASAP - SARS-CoV-2 nsp3 macrodomain single point” (2024).

Target: Replicase polyprotein 1ab (Severe acute respiratory syndrome coronavirus 2) (UniProt P0DTD1)
Description: Functional biochemical assay to identify treatments for viral infectious disease that targets SARS-COV-2 nsp3 macrodomain, whereby the mechanism of action displaces an ADP-Ribose modified peptide from the binding site. Utilizing a time-resolved fluorescence method to measure binding by reading the emitted fluorescence intensity in two wavelengths.

Compound: O=C(O)[C@H]1CCCCCN1C(=O)c1ncnc2[nH]ccc12
- inhibition (Concentration 50.0 uM, Number of replicates 2.0, Standard deviation 6.117 %): 11.8%

Compound: Brc1ccc(-n2nnnc2Sc2ncnc3[nH]ccc23)cc1
- inhibition (Concentration 50.0 uM, Number of replicates 2.0, Standard deviation 10.96 %): 12.7%

Compound: Cc1[nH]c2ncnc(NCc3ccco3)c2c1C
- inhibition (Concentration 50.0 uM, Number of replicates 2.0, Standard deviation 0.505 %): 17%
- inhibition (Concentration 100.0 uM, Number of replicates 2.0, Standard deviation 0.323 %): 37.5%

Compound: Clc1cnc(N2CCN(c3ncnc4[nH]ccc34)CC2)c(Cl)c1
- inhibition (Concentration 50.0 uM, Number of replicates 2.0, Standard deviation 0.674 %): -2%
- inhibition (Concentration 100.0 uM, Number of replicates 2.0, Standard deviation 2.989 %): -6.57%

Compound: OC[C@@]1(Cc2ccc(F)cc2)CCN(c2ncnc3[nH]ccc23)C1
- inhibition (Concentration 50.0 uM, Number of replicates 2.0, Standard deviation 2.787 %): 5.07%

Compound: COc1cc(CNc2cnc3[nH]ncc3c2)ccc1Cl
- inhibition (Concentration 50.0 uM, Number of replicates 2.0, Standard deviation 4.023 %): -2.79%

Compound: Cc1c([C@@H](C)Nc2ncnc3[nH]ccc23)cnn1-c1ccccc1
- inhibition (Concentration 49.75 uM, Number of replicates 2.0, Standard deviation 1.063 %): 28.1%
- inhibition (Concentration 99.5 uM, Number of replicates 2.0, Standard deviation 3.12 %): 41.7%

Compound: CC1(C)CNCCN1C(=O)c1ccc(NC(=O)Nc2ccccc2)cc1
- inhibition (Concentration 49.75 uM, Number of replicates 2.0, Standard deviation 5.654 %): 2.24%
- inhibition (Concentration 99.5 uM, Number of replicates 2.0, Standard deviation 1.022 %): 1.39%

Compound: C[C@]1(C(=O)O)CCCN1C(=O)c1ncnc2[nH]ccc12
- inhibition (Concentration 50.0 uM, Number of replicates 2.0, Standard deviation 5.501 %): -5.29%
- inhibition (Concentration 100.0 uM, Number of replicates 2.0, Standard deviation 0.477 %): 5.67%

Compound: O=C(CCN(Cc1cccc(Cl)c1)C(=O)[C@@H]1CC1(F)F)N1CCNCC1
- inhibition (Concentration 49.75 uM, Number of replicates 2.0, Standard deviation 3.095 %): -2.07%
- inhibition (Concentration 99.5 uM, Number of replicates 2.0, Standard deviation 1.648 %): -3.76%

Compound: O=C(CCN(Cc1cccc(Cl)c1)C(=O)[C@H]1C[C@H](O)C1)N1CCNCC1
- inhibition (Concentration 49.75 uM, Number of replicates 2.0, Standard deviation 2.648 %): -2.13%
- inhibition (Concentration 99.5 uM, Number of replicates 2.0, Standard deviation 5.781 %): -3.77%

Compound: C[C@H](NC(=O)c1ccc(NC(=O)Nc2ccccc2)cc1)[C@@H]1CCCO1
- inhibition (Concentration 49.75 uM, Number of replicates 2.0, Standard deviation 1.099 %): -4.28%
- inhibition (Concentration 99.5 uM, Number of replicates 2.0, Standard deviation 2.587 %): -4.86%

Compound: O=C(CCN(Cc1cccc(Cl)c1)C(=O)[C@@H]1C[C@@H](O)CN1)N1CCNCC1
- inhibition (Concentration 49.75 uM, Number of replicates 2.0, Standard deviation 1.654 %): -3.54%
- inhibition (Concentration 99.5 uM, Number of replicates 2.0, Standard deviation 6.509 %): 4.74%

Compound: COCc1nc(CNc2c(C#N)c(C)nn2C)cs1
- inhibition (Concentration 50.0 uM, Number of replicates 2.0, Standard deviation 4.858 %): 0.8%

Compound: Cc1nn(C)c(C)c1[C@H]1COCCN1c1ncnc2[nH]ccc12
- inhibition (Concentration 49.75 uM, Number of replicates 2.0, Standard deviation 4.821 %): -0.137%
- inhibition (Concentration 99.5 uM, Number of replicates 2.0, Standard deviation 1.988 %): -0.128%

Compound: Cc1nn(C)c(NCc2nc(CO)cs2)c1C#N
- inhibition (Concentration 50.0 uM, Number of replicates 2.0, Standard deviation 1.694 %): 2.1%

Compound: O=C(CCN(Cc1cccc(Cl)c1)C(=O)[C@@H]1CNCC12CC2)N1CCNCC1
- inhibition (Concentration 49.75 uM, Number of replicates 2.0, Standard deviation 4.003 %): 4.21%
- inhibition (Concentration 99.5 uM, Number of replicates 2.0, Standard deviation 2.443 %): 2.38%

Compound: CN(Cc1nccn1Cc1ccccc1)c1ncnc2[nH]ccc12
- inhibition (Concentration 50.0 uM, Number of replicates 2.0, Standard deviation 2.394 %): -7.22%
- inhibition (Concentration 100.0 uM, Number of replicates 2.0, Standard deviation 1.584 %): -8.82%

Compound: Cc1ncc(NCc2ncn(C)c2Cl)cc1C(N)=O
- inhibition (Concentration 50.0 uM, Number of replicates 2.0, Standard deviation 1.923 %): 2.41%

Compound: O=C(NCc1nc(-c2ccco2)n[nH]1)c1cc(=O)n2ncnc2[nH]1
- inhibition (Concentration 50.0 uM, Number of replicates 2.0, Standard deviation 1.646 %): -2.6%

Compound: Fc1ccc(Oc2cc(CNc3ncnc4nc[nH]c34)ccn2)cc1
- inhibition (Concentration 50.0 uM, Number of replicates 2.0, Standard deviation 7.991 %): 2.01%

Compound: C[C@@H](O)[C@@H]1CN(C(=O)c2ncnc3[nH]ccc23)CCO1
- inhibition (Concentration 50.0 uM, Number of replicates 2.0, Standard deviation 0.15 %): -3.13%

Compound: c1ccc(OC[C@@H]2CCCN2c2ncnc3[nH]ccc23)cc1
- inhibition (Concentration 50.0 uM, Number of replicates 2.0, Standard deviation 1.709 %): -0.466%

Compound: O=C1CC[C@@H](CNC(=O)c2cnn3ccc(C4CCN(C(=O)c5ccccc5)CC4)cc23)N1
- inhibition (Concentration 49.75 uM, Number of replicates 2.0, Standard deviation 1.276 %): -2.32%
- inhibition (Concentration 99.5 uM, Number of replicates 2.0, Standard deviation 4.674 %): -1.47%

Compound: O=S(=O)(Nc1cnc2[nH]ncc2c1)c1cnn(C2CCCC2)c1
- inhibition (Concentration 50.0 uM, Number of replicates 2.0, Standard deviation 0.633 %): 0.415%

Compound: O=C(Nc1cnc2[nH]ncc2c1)c1ccncc1Cl
- inhibition (Concentration 50.0 uM, Number of replicates 2.0, Standard deviation 1.31 %): -2.75%
- inhibition (Concentration 50.0 uM, Number of replicates 2.0, Standard deviation 1.931 %): -0.272%
- inhibition (Concentration 100.0 uM, Number of replicates 2.0, Standard deviation 1.828 %): 2.96%

Compound: CN1CCC[C@@H]1CNC(=O)c1cnn2ccc(C3CCN(C(=O)c4ccccc4)CC3)cc12
- inhibition (Concentration 49.75 uM, Number of replicates 2.0, Standard deviation 1.011 %): -4.43%
- inhibition (Concentration 99.5 uM, Number of replicates 2.0, Standard deviation 3.797 %): 1.5%

Compound: O=C(Nc1ccccc1)Nc1ccc(C(=O)NCCc2cccnc2)cc1
- inhibition (Concentration 49.75 uM, Number of replicates 2.0, Standard deviation 2.77 %): 1.27%
- inhibition (Concentration 99.5 uM, Number of replicates 2.0, Standard deviation 0.373 %): 10.4%

Compound: O=S(=O)(Nc1ncccn1)c1ccc2oc3ccccc3c2c1
- inhibition (Concentration 50.0 uM, Number of replicates 2.0, Standard deviation 5.51 %): -3%

Compound: Cc1cocc1C(=O)N(CCC(=O)N1CCNCC1)Cc1cccc(Cl)c1
- inhibition (Concentration 49.75 uM, Number of replicates 2.0, Standard deviation 0.438 %): 1.4%
- inhibition (Concentration 99.5 uM, Number of replicates 2.0, Standard deviation 0.13 %): 0.51%

Compound: O=C(Nc1ccccc1)Nc1ccc(C(=O)N[C@H]2CC[C@H](CO)CC2)cc1
- inhibition (Concentration 49.75 uM, Number of replicates 2.0, Standard deviation 1.388 %): -0.639%
- inhibition (Concentration 99.5 uM, Number of replicates 2.0, Standard deviation 3.79 %): -2.58%

Compound: CC(C)OCCNC(=O)c1cc2c(=O)n3ccccc3nc2n1C
- inhibition (Concentration 50.0 uM, Number of replicates 2.0, Standard deviation 4.259 %): 14%

Compound: O[C@H]1C[C@](CNc2ncnc3[nH]ccc23)(c2ccccc2)C1
- inhibition (Concentration 50.0 uM, Number of replicates 2.0, Standard deviation 6.633 %): 11.4%

Compound: O=C(N[C@@H](C(=O)O)[C@@H](O)Cc1ccccc1)c1ncnc2[nH]ccc12
- inhibition (Concentration 49.75 uM, Number of replicates 2.0, Standard deviation 1.324 %): 3.79%
- inhibition (Concentration 99.5 uM, Number of replicates 2.0, Standard deviation 4.676 %): 12.3%

Compound: CCc1nc(CN(C)c2nc(C)nc3[nH]ccc23)cs1
- inhibition (Concentration 50.0 uM, Number of replicates 2.0, Standard deviation 3.767 %): -6.13%

Compound: CCN(Cc1cccnc1)C(=O)c1ccc(NC(=O)Nc2ccccc2)cc1
- inhibition (Concentration 49.75 uM, Number of replicates 2.0, Standard deviation 4.414 %): 3.63%
- inhibition (Concentration 99.5 uM, Number of replicates 2.0, Standard deviation 0.745 %): -7.09%

Compound: C[C@@]1(C(N)=O)CCCN1C(=O)c1cnn2ccc(C3CCN(C(=O)c4ccccc4)CC3)cc12
- inhibition (Concentration 49.75 uM, Number of replicates 2.0, Standard deviation 3.259 %): -8.04%
- inhibition (Concentration 99.5 uM, Number of replicates 2.0, Standard deviation 21.157 %): 10.4%

Compound: Oc1ccccc1CNc1ncnc2cccnc12
- inhibition (Concentration 49.75 uM, Number of replicates 2.0, Standard deviation 0.51 %): -1.84%
- inhibition (Concentration 99.5 uM, Number of replicates 2.0, Standard deviation 1.128 %): -0.535%

Compound: Cn1cc([C@H]2CCCCN2c2ncnc3[nH]ccc23)cn1
- inhibition (Concentration 49.75 uM, Number of replicates 2.0, Standard deviation 3.479 %): 6.39%
- inhibition (Concentration 99.5 uM, Number of replicates 2.0, Standard deviation 0.865 %): 8.32%

Compound: Cn1nc(NC(=O)c2cc3nccn3c(=O)[nH]2)c2nccnc21
- inhibition (Concentration 50.0 uM, Number of replicates 2.0, Standard deviation 4.143 %): -1.91%

Compound: O=C(CCN(Cc1cccc(Cl)c1)C(=O)c1ccc(O)cc1)N1CCNCC1
- inhibition (Concentration 49.75 uM, Number of replicates 2.0, Standard deviation 5.17 %): -0.343%
- inhibition (Concentration 99.5 uM, Number of replicates 2.0, Standard deviation 10.002 %): -1.63%

Compound: Cc1nc2cnccn2c1NC(=O)c1cc(-c2ccco2)[nH]n1
- inhibition (Concentration 50.0 uM, Number of replicates 2.0, Standard deviation 2.08 %): -3.88%

Compound: c1ccc(-c2cc(CNc3ncnc4[nH]ccc34)on2)cc1
- inhibition (Concentration 50.0 uM, Number of replicates 2.0, Standard deviation 8.772 %): 7.14%
- inhibition (Concentration 100.0 uM, Number of replicates 2.0, Standard deviation 1.845 %): -3.46%

Compound: O=C(OCc1ccc(Cl)nc1)c1ncnc2[nH]ccc12
- inhibition (Concentration 50.0 uM, Number of replicates 2.0, Standard deviation 1.988 %): 6.08%

Compound: CC(C)Cn1cc([C@H]2N(c3ncnc4[nH]ccc34)CC23CCOCC3)cn1
- inhibition (Concentration 49.75 uM, Number of replicates 2.0, Standard deviation 1.28 %): -0.591%
- inhibition (Concentration 99.5 uM, Number of replicates 2.0, Standard deviation 6.534 %): -4.66%

Compound: CC(C)(C[C@@H]1CCCN(c2ncnc3[nH]ccc23)C1)C(N)=O
- inhibition (Concentration 50.0 uM, Number of replicates 2.0, Standard deviation 4.235 %): -1.59%

Compound: CC(C)[C@@H]1[C@H](O)CCN1c1ncnc2[nH]ccc12
- inhibition (Concentration 49.75 uM, Number of replicates 2.0, Standard deviation 3.675 %): 17.7%
- inhibition (Concentration 99.5 uM, Number of replicates 2.0, Standard deviation 0.827 %): 32.1%

Compound: CCC(CC)(C(=O)Nc1nc(C)nc2[nH]ccc12)C(=O)OC(C)(C)C
- inhibition (Concentration 50.0 uM, Number of replicates 2.0, Standard deviation 5.081 %): -9.46%
- inhibition (Concentration 100.0 uM, Number of replicates 2.0, Standard deviation 0.41 %): -4.71%

Compound: Cc1ccc(S(=O)(=O)Nc2ccccc2F)cc1C(=O)Nc1cnc2[nH]ncc2c1
- inhibition (Concentration 50.0 uM, Number of replicates 2.0, Standard deviation 3.248 %): 0.764%

Compound: O=C(c1ccc(O)nc1)N1CCC(c2ccn3ncc(C(=O)N4CCCCC4)c3c2)CC1
- inhibition (Concentration 49.75 uM, Number of replicates 2.0, Standard deviation 5.093 %): 11%
- inhibition (Concentration 99.5 uM, Number of replicates 2.0, Standard deviation 0.548 %): 26.5%

Compound: NC(=O)c1ccccc1NC(=O)c1ncnc2[nH]ccc12
- inhibition (Concentration 50.0 uM, Number of replicates 2.0, Standard deviation 0.083 %): -2.59%
